Laboratory results from US10242153B2, “Method for determining the risk profile of neoplastic tissue” (NOVAZOI THERANOSTICS, priority 2014, dated 2019).

How the values were obtained:
MDA-MB-231 (231) cells = test: Peak subG1 fraction by flow cytometry (propidium iodide) after declustering drugs, 231 cells; format: cell-based, human
Protocol: (§1) To evaluate the impact of putative declustering drugs on cell cycle progression and hypodiploidy (<2N DNA content, which may indicate apoptotic cells), MDA-MB-231 (231), PC3, and HeLa cells were treated with different concentrations of declustering drugs, stained with propidium iodide, labeled with anti-MPM2 antibody, and then assessed by flow cytometry at multiple time points over 48 hr. […] The duration, highest degree, and rapidity of onset of MA varied between drugs, drug concentrations, and cell lines (data not shown). In general, the maximum MA achieved was less pronounced in Nos- and PJ-treated cells. Drug-induced onset of MA was corroborated by substantial increases in cyclin B1 levels in all cell lines. For most cases, prolonged MA (˜24 hr in duration) was followed by a substantial increase in the subG1 population fraction. […] Instances where the subGl fraction was elevated without cleaved caspase-3 may either represent caspase-independent cell death or the presence of hypodiploid cells whose fate is unclear. In general, no consistent associations between the extent, duration, or timing of MA within drugs or across cell lines was found.

HeLa cells = test: Peak subG1 fraction by flow cytometry after declustering drugs, HeLa cells; format: cell-based
Protocol: as §1

PC3 cells = test: Peak subG1 fraction by flow cytometry after declustering drugs, PC3 cells; format: cell-based
Protocol: as §1

[1] = system: adult human dermal fibroblasts (HDFs); test: Peak subG1 fraction after declustering drugs, non-malignant HDFs; format: cell-based; details: for Peak subG1 percents over 48 h: HDF; for death in cancer cell lines vs. HDFs: both concentrations
Protocol: as §1
(§2) To determine whether the CA-inducing activity of declustering drugs is restricted to cancer cells, two non-malignant cell lines, mammary fibrocystic (MCF10A) cells and adult human dermal fibroblasts (HDFs) were treated with these drugs. […] In comparison, 10 and 25 µM RBN increased peak CA over controls in interphase cells (p<0.001 and p=0.001, respectively), with the lower concentration dramatically augmenting peak CA to 56% of cells versus 15% for the higher dose (FIG. 13, panel B).
In HDFs, all the drugs tested increased peak subG1 over controls in a significant fashion (p<0.01 for all) (Table 2). […] Thus, it appears that there may be clinically relevant therapeutic windows for these drugs depending on the type of cancer and the drug dosage.

[2] = system: mammary fibrocystic (MCF10A) cells; test: Peak subG1 fraction after declustering drugs, non-malignant MCF10A cells; format: cell-based; details: for peak subG1 percent compared to controls: MCF10A cells; for Peak subG1 percents over 48 h: MCF10A
Protocol: as §1, §2
Importantly, a therapeutic window exists for several of these agents at the concentrations and in the cell lines tested compared to cancer cells.

231 cells = test: Centrosome amplification (CA) by microscopy (γ-tubulin/centrin-2 foci), 231 cells; format: cell-based, human; details: 231 cells, 25 μM
Protocol: Consequently, CA was assessed in cultures treated with different concentrations of declustering drugs for 6, 12, 18, or 24 h and untreated controls via microscopy. Centrosomes were identified by γ-tubulin and centrin-2 colocalization at discrete foci. […] The peak percent CA detected over 24 h is shown in FIG. 13 (only statistically significant (P<0.05) increases over control values are represented in the Figures). To better understand the “potency” of drug-induced CA with time, the average fold change in CA over controls over 24 h was assessed (FIG. 12, panel A), whereby the extent of CA across time points (i.e., 6, 12, 18, and 24 hr) was averaged and then divided by the extent of CA in control (i.e., 0 hr). All of the drugs at least doubled the peak extent of CA in all cell lines tested (FIG. 12, panel A), although the final extent of CA could be small or large in magnitude depending on the initial centrosomal burden as shown in FIG. 11. […] The peak extent in interphase HeLa cells was somewhat less at 30.7% and 48.1% for 10 and 25 μM RBN, respectively (FIG. 13, panel A). For Nos and BN, there was no major difference in CA levels in interphase versus mitotic cells.

MCF10A cells = test: Centrosome amplification (CA) by microscopy, MCF10A cells; format: cell-based; details: for CA / peak extent of CA versus control levels: interphase and mitotic MCF10A cells, both concentrations (10 and 25 μM), over 24 h
Protocol: (§3) Consequently, CA was assessed in cultures treated with different concentrations of declustering drugs for 6, 12, 18, or 24 h and untreated controls via microscopy. Centrosomes were identified by γ-tubulin and centrin-2 colocalization at discrete foci.
as §2

[3] = system: adult human dermal fibroblasts (HDFs); test: Centrosome amplification (CA) by microscopy, HDFs; format: cell-based; details: for extent of CA over controls: HDFs, any of the concentrations or time points assessed
Protocol: as §3, §2

[4] = system: PLK4, Cyclin E, and Aurora A; test: Western blotting of markers of centrosome amplification; format: cell-based; details: 231 cells, 25 μM
[5] = system: ZR-75-30 cells with amplified centrosomes (ZR-A); test: Sub-G1 population in ZR-75-30 cells with amplified centrosomes (ZR-A) versus parent cells; format: cell-based; details: 25 μM, 48 h
Protocol: Panel A depicts representative DNA histograms comparing cell-cycle kinetics of ZR-75-30 cells and ZR-A cells treated with bromonoscapine (BN, 25 μM), griseofulvin (GF, 25 μM) or PJ34 (25 μM), respectively for 48 h. […] Panel B depicts a quantitative comparison of sub-G1 population in ZR-75-30 and ZR-A cells upon treatment with the three drugs with the same concentration (25 μM) for the same duration (48 h).
Accordingly, these cells can be pharmacologically manipulated with aphidicolin to generate extra centrosomes. […] Following aphidicolin wash-out, cells were stained using anti-centrin-2 antibodies to verify extra centrosomes by immunofluorescence confocal microscopy. About ˜60% ZR-75-30 cells generated extra centrosomes (6-8 per cell) and were evaluated for their sensitivity to the three drugs, griseofulvin, bromonoscapine, and PJ34, and compared with parent ZR-75-30 cells with normal centrosomes.

N1E-115 cells [6] = test: Drug sensitivity (IC50) of N1E-115 cells; format: cell-based, murine; details: Mus musculus; N1E-115 cells (data not shown)
N1E-115 cells [7] = test: Interphase declustering index (DI) in N1E-115 cells; format: cell-based, murine; details: 6-h treatment, 25 interphase cells, drugs at their respective IC50 concentrations
Protocol: To evaluate their effect on interphase clustering, N1E-115 cells were treated with these drugs at their respective IC50 concentrations for 0, 3, 6 and 9 h and co-immunostained for γ-tubulin and α-tubulin to evaluate centrosomal spread and microtubule nucleation status, respectively.
Cell cycle phases were further evaluated via lamin A/C immunostaining to distinguish interphase declustering events from prophase centrosomal spread. To quantitate the spread of the interphase centrosomal cluster, a 3D reconstruction of z-stack images of 25 randomly-selected interphase cells from the 6-h treatment group of each drug were generated. By defining an ROI (region of interest) around the interphase centrosomal cluster, the volume of the cluster spread was calculated using Volocity software. Likewise, defining an ROI using the cell periphery provided the cell volume.

N1E-115 cells [8] = test: Neuritogenesis (neurite extension) in serum-starved N1E-115 cells; format: cell-based, murine
Protocol: N1E-115 cells grown in serum-starved (SS) medium were evaluated to determine the extent of neurite formation after 48 h of treatment with RedBr-Nos (5 μM), Griseofulvin (10 μM), PJ-34 (10 μM), Paclitaxel (0.05 μM) treatment or untreated control cells (i.e., serum-starved medium (SS) alone). Panels Ai and Aii depict quantitative bar graphs representing the average length of neurites and percentage of population of cells showing neurite length >10 μm, respectively. A hundred cells were counted in each case. […] Panel B depicts an immunoblot showing CLASP1 expression levels in control (C) and CLASP1 siRNA-transfected N1E-115 cells.
Neuritogenesis is a process in nerve cells involving the extension of polarized, elongated neurites. N1E-115 cells usually extend only one major neurite per cell, which can vary in length from 5 to 500 μm. The growth cones of the neurites serve as primary focal points of motility. The effect of declustering agents on cell motility was evaluated by assessing the length and frequency of neurites formed in a serum-free medium on a laminin-coated surface.

N1E-115 cells [9] = test: Golgi (GM130) and γ-tubulin co-immunostaining of drug-treated N1E-115 cells; format: cell-based, murine; details: data not shown
Text: The Golgi, which is primarily responsible for posttranslational modification and protein sorting, also functions as a microtubule-organizing center (MTOC). It has been hypothesized that supernumerary centrosomes may better organize the Golgi to enhance directional cell migration. To investigate what happens to the Golgi upon declustering drug-induced dispersal of the interphase centrosomal cluster, drug-treated N1E-115 cells were co-immunostained with GM130 (a cis-Golgi matrix protein crucial for maintaining its structure) and γ-tubulin.

N1E-115 cells [10] = test: Vinculin localization in serum-starved N1E-115 cells; format: cell-based, murine; details: serum-starved (SS) cells
Text: Vinculin stabilizes cell-substrate contacts in neuronal cells undergoing neuritogenesis, while activation by actin-binding proteins mobilizes vinculin to focal adhesions. To determine the localization of vinculin in the neurite extensions and the effect of declustering agents on its localization, N1E-115 cells were immunostained cells for vinculin and stained F-actin using rhodamine-phalloidin.

N1E-115 cells [11] = test: Ki67 and cleaved caspase-3 immunostaining of serum-starved N1E-115 cells; format: cell-based, murine; details: RedBr-Nos 5 μM, Griseofulvin 10 μM, PJ-34 10 μM

Row | IC50 (N1E-115 cells [6]) [µM] | Structure (SMILES) | Peak subG1 percents over 48 h (MDA-MB-231 (231) cells; 10 μM) [%] | Peak subG1 percents over 48 h (MDA-MB-231 (231) cells; 25 μM) [%] | Peak subG1 percents over 48 h (HeLa cells; 10 μM) [%] | Peak subG1 percents over 48 h (HeLa cells; 25 μM) [%] | Peak subG1 percents over 48 h (PC3 cells; 10 μM) [%] | Peak subG1 percents over 48 h (PC3 cells; 25 μM) [%] | Peak subG1 percents over 48 h ([1]; 10 μM) [%] | Peak subG1 percents over 48 h ([1]; 25 μM) [%] | death in cancer cell lines vs. HDFs [1] | peak subG1 percent compared to controls [2] | Peak subG1 percents over 48 h ([2]; 10 μM) [%] | Peak subG1 percents over 48 h ([2]; 25 μM) [%] | CA / peak extent of CA versus control levels (MCF10A cells) | extent of CA over controls [3] | maximum (peak) subG1 fraction relative to control (MDA-MB-231 (231) cells; 25 μM) [× control] | sub-G1 population versus parent ZR-75-30 cells [5] | interphase declustering index (DI): ratio of average cluster volume to average cell volume (N1E-115 cells [7]) | fragmentation of the interphase Golgi complex (N1E-115 cells [9]) | vinculin localization and focal adhesion points (N1E-115 cells [10]) | further results
1 | – | COc1ccc2c(c1OC)C(=O)O[C@@H]2[C@H]1c2c(cc3c(c2OC)OCO3)CCN1C [Nos, noscapine] | 26.3 | 43.9 | 25.0 | 50.1 | 29.9 | 32.7 | 14.8 | 11.2 | more death in all cancer cell lines vs. HDFs | did not cause a significant increase | 4.1 | 4.2 | neither concentrations of Nos or BN significantly increased CA over control levels | did not significantly increase the extent of CA over controls | – | – | – | – | – | induction of CA (231 cells): failed to induce significant CA; expression levels of Cyclin E and PLK4 [4]: surge in the expression levels of Cyclin E and PLK4
2 | – | COc1ccc2c(c1OC)C(=O)O[C@@H]2[C@H]1c2c(c(Br)c3c(c2OC)OCO3)CCN1C [BN, bromonoscapine] | 32.5 | 65.2 | 42.0 | 54.9 | 46.0 | 42.8 | 16.5 | 20.4 | the same was true for 231 and PC3 cells | did not cause a significant increase | 3.5 | 3.0 | neither concentrations of Nos or BN significantly increased CA over control levels | did not significantly increase the extent of CA over controls | 9.3 | much higher sub-G1 population compared to parent ZR-75-30 cells | – | – | – | maximum (peak) subG1 fraction relative to control (HeLa cells; 25 μM): 4.4 × control; maximum (peak) subG1 fraction relative to control (PC3 cells; 25 μM): 9.2 × control
3 | 25 | COC1=CC(=O)C[C@@H](C)[C@]12Oc1c(Cl)c(OC)cc(OC)c1C2=O [GF, griseofulvin] | – | 62.0 | – | 59.5 | – | 33.7 | – | 32.9 | more death in 231 and HeLa cells | did increase peak SubG1 | – | 22.7 | – | – | 6.4 | much higher sub-G1 population compared to parent ZR-75-30 cells | 0.28 | most robust effect | complete internalization of vinculin and complete loss of focal adhesion points | Peak subG1 percents over 48 h (MDA-MB-231 (231) cells; 50 μM): 60.0%; Peak subG1 percents over 48 h (HeLa cells; 50 μM): 79.0%; maximum (peak) subG1 fraction relative to control (HeLa cells; 50 μM): 4.3 × control; Peak subG1 percents over 48 h (PC3 cells; 50 μM): 39.5%; maximum (peak) subG1 fraction relative to control (PC3 cells; 50 μM): 16.3 × control; Peak subG1 percents over 48 h ([1]; 50 μM): 38.3%; susceptibility / toxicity in MCF10A cells versus cancer cell lines ([2]; 25 μM): All cancer cell lines were found to be more susceptible; susceptibility of MCF10A cells versus cancer cell lines ([2]; 50 μM): MCF10A and PC3 cells were equally susceptible; Peak subG1 percents over 48 h ([2]; 50 μM): 35.1%; peak interphase CA (MCF10A cells; interphase MCF10A cells, 25 and 50 μM): 13-16%; CA in mitotic cells versus controls (MCF10A cells; mitotic MCF10A cells, 25 and 50 μM): no increase was observed; peak CA ([3]; interphase HDFs only, 25 and 50 μM): 14-15%; inhibition at 10 µM (N1E-115 cells [8]; Mus musculus, N1E-115, 48 h, RedBr-Nos 5 μM, Griseofulvin 10 μM): 70 to 80%; Ki67-positive cells (N1E-115 cells [11]): high proportion of Ki67-positive cells
4 | 0.05 | CC(=O)O[C@H]1C(=O)[C@@]2(C)[C@H]([C@H](OC(=O)c3ccccc3)[C@]3(O)C[C@H](OC(=O)[C@H](O)[C@@H](NC(=O)c4ccccc4)c4ccccc4)C(C)=C1C3(C)C)[C@]1(OC(C)=O)CO[C@@H]1C[C@@H]2O [Paclitaxel, paclitaxel] | – | – | – | – | – | – | – | – | – | – | – | – | – | – | – | – | 0.08 | interphase Golgi complex fragmented | less severe | inhibition of neurite extension (N1E-115 cells [8]; 48 h, PJ-34 10 μM, Paclitaxel 0.05 μM): moderate inhibition
